By Ki is commonly meant the equilibrium dissociation constant of an inhibitor or competing ligand from its target.

The structures appear in SMILES notation. The source made the active and inactive calls. The rule behind the calls is not given here. A value given as a limit tells only on which side of the number the result lay.

Data set [1] can be described thus: Cytotoxicity against human U-87 MG cells assessed as cell viability at 10 uM incubated for 24 hrs by MTT assay. It counts as cell-based, U-87MG ATCC. Conditions: read-out: Activity. (Formazan colour is commonly taken as a measure of viable cells.)
Data set [2] can be described thus: Metal chelating activity assessed as compound-Fe3+ complex formation by measuring mole fraction that causes maximum variation in absorbance in presence of FeCl3.6H2O by Job's plot analysis.
Data set [3] concerns the target Cholinesterase (Equus caballus) (UniProt P81908). In words: Mixed type inhibition of equine BChE using varying level of acetylthiocholine as substrate by Dixon plot analysis.
Data set [4] can be described thus: Metal chelating activity assessed as compound-Cu2+ complex formation by measuring mole fraction that causes maximum variation in absorbance in presence of CuSO4.5H2O by Job's plot analysis.
The target of another data set is Cholinesterase (Equus caballus, UniProt P81908). As to the kind of experiment: Inhibition of equine BChE assessed as inhibition constant using acetylthiocholine as substrate measured for 0.5 to 1.5 mins by Ellman's method.
Data set [5] is described as follows: Metal chelating activity assessed as compound-Zn2+ complex formation at 2 mM in presence of Zn(NO3)2.6H2O by UV-vis spectrophotometric titration analysis.
The nature of data set [6]: Metal chelating activity assessed as compound-Cu2+ complex formation at 2 mM in presence of CuSO4.5H2O by UV-vis spectrophotometric titration analysis.
Data set [7] can be described thus: Metal chelating activity assessed as compound-Fe3+ complex formation at 2 mM in presence of FeCl3.6H2O by UV-vis spectrophotometric titration analysis.
The target of another data set is Acetylcholinesterase (Electrophorus electricus, UniProt O42275). As to the kind of experiment: Inhibition of electric eel AChE assessed as inhibition constant using acetylthiocholine as substrate measured for 0.5 to 1.5 mins by Ellman's method. A general note: In Ellman's method for cholinesterases, released thiocholine reacts with DTNB.
Data set [8] can be described thus: Metal chelating activity assessed as compound-Fe3+ complex formation at 1.7 mM in presence of FeCl3.6H2O by UV-vis spectrophotometric titration analysis.

Chain of Acetylcholinesterase (O42275 whole entry): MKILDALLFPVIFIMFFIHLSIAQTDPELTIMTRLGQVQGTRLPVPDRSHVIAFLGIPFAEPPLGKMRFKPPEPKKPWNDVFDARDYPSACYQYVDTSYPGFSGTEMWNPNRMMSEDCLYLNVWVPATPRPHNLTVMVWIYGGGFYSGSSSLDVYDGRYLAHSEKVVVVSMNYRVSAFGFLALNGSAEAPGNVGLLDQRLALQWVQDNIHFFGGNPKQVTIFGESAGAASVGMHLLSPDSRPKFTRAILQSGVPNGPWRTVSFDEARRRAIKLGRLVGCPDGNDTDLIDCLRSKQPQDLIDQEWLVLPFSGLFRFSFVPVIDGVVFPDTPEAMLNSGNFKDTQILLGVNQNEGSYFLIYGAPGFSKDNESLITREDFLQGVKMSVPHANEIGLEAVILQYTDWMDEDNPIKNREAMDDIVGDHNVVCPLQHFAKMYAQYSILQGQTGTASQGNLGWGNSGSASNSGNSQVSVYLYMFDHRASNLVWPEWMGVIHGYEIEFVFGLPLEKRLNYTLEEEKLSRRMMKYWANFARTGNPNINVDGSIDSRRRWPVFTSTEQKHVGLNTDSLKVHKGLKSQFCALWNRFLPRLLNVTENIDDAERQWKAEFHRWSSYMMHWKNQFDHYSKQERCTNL
Chain of Cholinesterase (Equus caballus) (P81908 whole entry): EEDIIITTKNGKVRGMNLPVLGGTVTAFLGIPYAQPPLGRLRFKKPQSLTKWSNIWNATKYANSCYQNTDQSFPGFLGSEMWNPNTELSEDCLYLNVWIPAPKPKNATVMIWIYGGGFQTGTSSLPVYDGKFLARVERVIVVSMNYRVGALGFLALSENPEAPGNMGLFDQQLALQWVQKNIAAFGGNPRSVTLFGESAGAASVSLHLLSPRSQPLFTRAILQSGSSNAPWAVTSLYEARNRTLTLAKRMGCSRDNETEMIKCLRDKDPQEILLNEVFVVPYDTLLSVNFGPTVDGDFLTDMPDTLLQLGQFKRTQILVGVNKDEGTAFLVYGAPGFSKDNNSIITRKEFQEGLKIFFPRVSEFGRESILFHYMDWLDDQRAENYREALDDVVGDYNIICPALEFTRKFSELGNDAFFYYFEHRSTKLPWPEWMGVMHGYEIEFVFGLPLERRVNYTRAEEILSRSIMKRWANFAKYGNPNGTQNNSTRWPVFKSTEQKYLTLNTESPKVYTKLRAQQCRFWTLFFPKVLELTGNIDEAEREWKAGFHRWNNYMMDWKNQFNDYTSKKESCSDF
Chain of Cholinesterase (P81908 whole entry): as above

`Cc1c(O)c(=O)ccn1CCCCCCNc1ccnc(NCc2ccccc2)n1`: the viability at 24 h, 10 µM in data set [1] was greater than 75%. Besides, the Activity (mole fraction) came to 0.5 in data set [2] and 0.64 in data set [4]. Moreover, the inhibition result in data set [3] is “Active”. Also, the Ki on Cholinesterase came out at 0.92 µM. The outcome in [5] was Active.

With `Cc1c(OCc2ccccc2)c(=O)ccn1CCCCCCNc1ccnc(NCc2ccccc2)n1`, the viability at 24 h, 10 µM in data set [1] is greater than 75%. In data set [2], the Activity (mole fraction) came to 0.67. Besides, the inhibition result in [3] is “Active”. The outcome in data set [6] and in data set [7] was Active. Moreover, at Cholinesterase, the Ki is 0.258 µM.

Take `COc1ccccc1CNCCCCCCn1ccc(=O)c(OCc2ccccc2)c1C`: the viability at 24 h, 10 µM in [1] is greater than 75%. For the same compound, the inhibition entry in data set [3] is “Active”. The values for the Ki at Cholinesterase and on Acetylcholinesterase were 0.91 µM and 2.79 µM, respectively.

As to `Cc1c(O)c(=O)ccn1CCCCCCNCc1ccccc1`, in [1], the viability at 24 h, 10 µM was greater than 75%. For the same compound, the Activity (mole fraction) was determined as 0.53 in data set [2] and 0.37 in [4]. In addition, the outcome in data set [6] and in data set [7] was Active. Also, the outcome in data set [5] was inactive. Also, the Ki on Acetylcholinesterase stood at 1.37 µM.

Regarding `COc1ccccc1CNCCCCCCn1ccc(=O)c(O)c1C`, in data set [1], the viability at 24 h, 10 µM is greater than 75%. Besides, the Ki on Acetylcholinesterase is 1.34 µM.

For the compound `Cc1c(OCc2ccccc2)c(=O)ccn1CCCCCCNc1nccc(Cl)n1`, in data set [1], the viability at 24 h, 10 µM is greater than 75%. For the same compound, the inhibition entry in data set [3] was “Active”. In addition, the Ki at Cholinesterase amounted to 1.08 µM. The outcome in [7] was Active.

In the case of `Cc1c(OCc2ccccc2)c(=O)ccn1CCCCNCc1ccccc1`, the viability at 24 h, 10 µM in data set [1] was greater than 75%. In addition, the inhibition entry in data set [3] was “Active”. The inhibition constant (Ki) at Cholinesterase amounted to 0.45 µM.

Consider `Cc1c(OCc2ccccc2)c(=O)ccn1CCCCCCNc1ccccn1`, for which the viability at 24 h, 10 µM in data set [1] is greater than 75%. In addition, the Activity (mole fraction) in data set [2] came out at 0.7. In addition, the inhibition entry in [3] is “Active”. On Cholinesterase, the Ki worked out at 0.182 µM. The outcome in data set [7] was Active.

Turning to `Cc1c(OCc2ccccc2)c(=O)ccn1CCCCCCNCc1ccccc1`, in [1], the viability at 24 h, 10 µM is greater than 75%. Besides, the Activity (mole fraction) in data set [2] was found to be 0.52. In addition, in data set [3], the inhibition result was “Active”. Also, in data set [8], the result was Active. Moreover, the Ki turned out to be 2.36 µM at Cholinesterase and 0.788 µM at Acetylcholinesterase. Moreover, the result in data set [5] was inactive.

The record behind these values is ChEMBL document CHEMBL4765309, “New deferiprone derivatives as multi-functional cholinesterase inhibitors: design, synthesis and in vitro evaluation” (Eur J Med Chem, 2020).
